Experimental data reported in patent US20120010264A1, “NOVEL MEDICAMENT FOR TREATING COGNITIVE IMPAIRMENT” (Dainippon Sumitomo Pharma Co., Ltd., priority 2009, published 2012).
Like-named read-outs stand apart in the source and are kept apart here.

What was measured:
[1] = Fluid retention as side effect: hematocrit level in high-fat diet obese diabetes mice; details: for Hematocrit level: high-fat diet mouse; for Effect on hematocrit level in mice (summary of Example 5): dose not stated
[2] = Brain delivery property: brain tissue and plasma concentration after oral administration; type: in vivo; details: female, 10 mg/kg oral, one portion, C57BL/6J mouse; for Kp: brain and plasma, read-out: Kp value (brain/plasma AUC0-6 hr ratio); for half-life / AUC(0-t): non-fasting; for AUC(0-t): read-out: AUC0-6 hr
Protocol: Method: Compound A or rosiglitazone (10 mg/kg) was orally administered in one portion to a mouse (C57BL/6J: female, 11 weeks old, 3 mice at each measuring point) under non-fasting condition. Its brain tissue and plasma were sequentially sampled for 6 hours after the administration to measure the concentration of the administered-compound. Based on each mean value of the concentrations in its brain tissue and plasma measured at several time points, each elimination half-life (t1/2) and area under the curve (AUC0-6hr) of the administered-compound were calculated.

[3] = system: rats with scopolamine-induced cognitive impairment; experiment: Scopolamine-induced cognitive impairment model, passive avoidance test; type: in vivo, rat; details: for Step-through latency: scopolamine 0.5 mg/kg i.p., rat, mean ± standard error, n = 11, up to 300 seconds
Description: It is known that scopolamine is a muscarinic acetylcholine receptor antagonist which causes memory impairment in animals and human. Thus, in order to evaluate the efficacy of an anti-Alzheimer's drug, a scopolamine-induced cognitive-impairment model is used in many evaluation tests of cognitive function including a passive avoidance test (Eur. J. Pharmacol., 383, 231, 1999). In Example 6, the effect of Compound A and rosiglitazone on cognitive function was studied using a passive avoidance test using rats with scopolamine-induced cognitive impairment.
Compound A (3, 10, 30 mg/kg) or rosiglitazone (1, 3, 10 mg/kg) was orally administered to a rat 60 minutes before training for the passive avoidance test. Scopolamine (0.5 mg/kg) or saline was intraperitoneally administered 30 minutes before the training. In the training period, the rat was put in a bright compartment and was allowed to explore for 10 seconds. Then, a door between the bright compartment and the dark one was opened, and as the rat went into the dark compartment, the door was closed. Three seconds later, the rat was given electroconvulsive shock (0.5 mA, 3 seconds). The passive avoidance response test was carried out 24 hours after the training. The rat was put in the bright compartment and was monitored to record the time that the rat stayed in the bright compartment (step-through latency) for up to 300 seconds. Dunnett's multiple comparison test (two-sided significance level 5%) was carried out to compare the step-through latency between the scopolamine treatment group and the scopolamine+test medicament treatment group. […] 0.5% Methylcellulose solution was used as a solvent of each compound.

scavenger receptor CD36 = experiment: CD36 transcription level in microglial cells by real-time RT-PCR; type: cell-based; details: 0.5 μM, 24 hours, neonatal rat microglial cells
Protocol: Microglial cells derived from neonatal rats (Sumitomo Bakelite) were cultured for 24 hours in a culture medium containing Compound A (0.5 μM or 5 μM). Then, total RNA was extracted from the cells, and therewith the transcription levels of scavenger receptor CD36 and glyceraldehyde-3-phosphate dehydrogenase (GAPDH) were measured by real-time RT-PCR to calculate the CD36 transcription level as a value relative to the GAPDH transcription level. In order to compare the CD36 transcription levels treated in the different conditions, CD36 transcription level in the control that was cultured for 24 hours with only DMSO which was used as a solvent in the above cultivation of Compound A was measured, and then the relative ratio of each CD36 transcription level of Compound A per that of the control (=1) was calculated.

[4] = system: LPS-induced cognitive impairment mouse; experiment: LPS-induced cognitive impairment model, Y-maze test (alternation behavior); type: in vivo; details: LPS i.c.v., percentage of alternation behavior in Y-maze
Protocol: It is known that lipopolysaccharide (LPS) can experimentally induce an inflammatory condition in brain like in Alzheimer's dementia patients. Thus, LPS-induced model is thought as a good disease model to study cognitive impairment caused by inflammation in Alzheimer's dementia (Neurosci. Res., 61, 113, 2008).
In Example 4-2, 5 μg of LPS (Eschenchia coli 055:B5, SIGMA) was intracerebroventricularly administered to a mouse (Slc:ddY mouse, 4 weeks old, male, Japan SLC, Inc.) in both ventricles, i.e. 2.5 μl of 1 mg/ml LPS was administered to each ventricle. LPS induced cognitive impairment in Y-maze test was appeared 4 days after treatment. (i.e. decrease of alternation behavior). Compound A (10, 30, 100 mg/kg, p.o., n=14-16) or rosiglitazone (1, 3, 10 mg/kg, p.o., n=8) was administered 30 minutes before the LPS administration, and 1, 2, 3 days after the LPS administration, and also 1 hour before the Y-maze test to evaluate the effect for improving cognitive function. 0.5% Methylcellulose solution was used as a solvent of each compound.

[5] = post-marketing surveillance; cited from earlier work
[6] = mouse, in vivo
[7] = 3 mg/kg oral once a day for 8 weeks
[8] = 10 mg/kg oral once a day for 8 weeks

| Kp [2] | half-life ([2]; brain) [min] | AUC(0-t) ([2]; brain) [ng·h/mL] | half-life ([2]; plasma) [min] | AUC(0-t) ([2]; plasma) [ng·h/mL] | Compound | Hematocrit level [1, 7] [%] | Hematocrit level [1, 8] [%] | Effect on hematocrit level in mice (summary of Example 5) [1] | Step-through latency ([3]; 3 mg/kg p.o.) [s] | Alternation behavior ([4]; 10 mg/kg p.o.) | other results |
| --- | --- | --- | --- | --- | --- | --- | --- | --- | --- | --- | --- |
| 0.154 | 256 | 1500 | 275 | 9710 | Cc1ccc(C(=O)c2cccn2C/C=C/c2ccc(COC(C)(C)C(=O)O)cc2)cc1 [Compound A, 2-Methyl-2-[(4-{(1E)-3-[2-(4-methylbenzoyl)-1H-pyrrol-1-yl]prop-1-en-1-yl}benzyl)oxy]propionic acid] | 47.7 ± 2.0 | 48.7 ± 1.2 | did not significantly affect | 162.5 ± 28.2 | 66.5 ± 2.8 | Hematocrit level ([1]; 30 mg/kg oral once a day for 8 weeks): 48.7 ± 1.5%; Effect on cognitive function (step-through latency) ([3]; single oral administration 3-30 mg/kg, scopolamine rat): improved cognitive function in a dose-dependent manner; CD36 transcription level relative to GAPDH, ratio per DMSO control (=1) (scavenger receptor CD36): 1.44 |
| 0.0451 | 63.6 | 1820 | 75.6 | 40400 | CN(CCOc1ccc(CC2SC(=O)NC2=O)cc1)c1ccccn1 (stereo not drawn) [Rosiglitazone, rosiglitazone] | 44.7 ± 1.5 | 41.1 ± 4.9 | decreased | 164.5 ± 33.1 | 73.4 ± 2.7 | Hematocrit level ([1]; 0.1 mg/kg oral once a day for 8 weeks): 47.4 ± 1.9%; Hematocrit level ([1]; 0.3 mg/kg oral once a day for 8 weeks): 46.6 ± 1.9 %; Hematocrit level ([1]; 1 mg/kg oral once a day for 8 weeks): 45.6 ± 0.9 %; Change of hematocrit level vs solvent ([1]; dose of 0.3 mg/kg or more, oral once a day for 8 weeks): significantly decreased; Frequency of fluid retention (peripheral edema) [5]: high; Step-through latency ([3]; 1 mg/kg p.o.): 144.8 ± 28.3 s; Step-through latency ([3]; 10 mg/kg p.o.): 170.7 ± 30.2 s; Alternation behavior ([4]; 1 mg/kg p.o.): 68.4 ± 5.0; Alternation behavior ([4]; 3 mg/kg p.o.): 71.9 ± 4.1 |
| – | – | – | – | – | CCc1ccc(CCOc2ccc(CC3SC(=O)NC3=O)cc2)nc1 (stereo not drawn) [pioglitazone] | – | – | – | – | – | Effect on hematocrit level in mice (summary of Example 5) [6]: decreased |
